Laboratory results: ChEMBL document CHEMBL4732135, “Structural and mechanistic insights into the inhibition of amyloid-β aggregation by Aβ fragment derived synthetic peptides” (Eur J Med Chem, 2021)
Activity calls are given as the source filed them. The rule behind the calls is not given here. Square brackets hold non-standard residues; d marks the D form. Peptide text beside a SMILES is read from it. Phe(4-Cl) = N[C@@H](Cc1ccc(Cl)cc1)C(=O)O; 1Nal = N[C@@H](Cc1cccc2ccccc12)C(=O)O; NMeF = CN[C@@H](Cc1ccccc1)C(=O)O; NMeI = CC[C@H](C)[C@H](NC)C(=O)O; NMeL = CN[C@@H](CC(C)C)C(=O)O; Tle = CC(C)(C)[C@H](N)C(=O)O; β3hP = O=C(O)C[C@@H]1CCCN1; Abu = CC[C@H](N)C(=O)O

What was measured:
[1] = test system: PC-12; test: Neuroprotective activity against amyloid beta 42-induced toxicity in rat PC-12 cells assessed as cell viability at 10 uM measured after 6 hrs by MTT assay (reference value: 74.05%); assay type: functional; conditions: read-out: Activity
[2] = test system: PC-12; test: Neuroprotective activity against amyloid beta 42-induced toxicity in rat PC-12 cells assessed as cell viability at 4 uM measured after 6 hrs by MTT assay (reference value: 74.05%); assay type: functional; conditions: read-out: Activity
[3] = test system: PC-12; test: Neuroprotective activity against amyloid beta 42-induced toxicity in rat PC-12 cells assessed as cell viability at 2 uM measured after 6 hrs by MTT assay (reference value: 74.05%); assay type: functional; conditions: read-out: Activity
[4] = Effective permeability of compound in pH 8 PBS buffer by PAMPA-BBB assay; assay type: ADME
[5] = target: Amyloid-beta precursor protein (Homo sapiens) (UniProt P05067); test: Inhibition of amyloid beta (1 to 42) (unknown origin) assessed as reduction in peptide aggregation at 10 uM measured after 24 hrs by thioflavin-T fluorescence assay relative to control
[6] = target: Amyloid-beta precursor protein (Homo sapiens) (UniProt P05067); test: Inhibition of amyloid beta (1 to 42) (unknown origin) assessed as reduction in peptide aggregation at 4 uM measured after 24 hrs by thioflavin-T fluorescence assay relative to control
[7] = target: Amyloid-beta precursor protein (Homo sapiens) (UniProt P05067); test: Inhibition of amyloid beta (1 to 42) (unknown origin) assessed as reduction in peptide aggregation at 2 uM measured after 24 hrs by thioflavin-T fluorescence assay relative to control
[8] = test system: PC-12; test: Cytotoxicity against rat PC-12 cells assessed as reduction in cell viability at 20 uM measured after 6 hrs by MTT assay; assay type: cell-based; conditions: pc-12, 6 h
[9] = test system: Cortical neurone; test: Cytotoxicity against rat primary cortical neuron assessed as reduction in cell viability at 20 uM measured after 6 hrs by MTT assay; assay type: cell-based
[10] = test system: Cortical neurone; test: Neuroprotective activity against amyloid beta 42-induced toxicity in rat primary cortical neurons at 10 uM; assay type: functional, cell-based
[11] = target: Amyloid-beta precursor protein (Homo sapiens) (UniProt P05067); test: Inhibition of amyloid beta (1 to 42) (unknown origin) aggregation assessed as protein with beta sheet conformation at 10 uM measured after 24 hrs by circular dichroism analysis (reference value: 66.4%); parameters: scale not given: the % may be the effect or the level left
[12] = target: Amyloid-beta precursor protein (Homo sapiens) (UniProt P05067); test: Inhibition of amyloid beta (1 to 42) (unknown origin) aggregation assessed as protein with random coil conformation at 10 uM measured after 24 hrs by circular dichroism analysis (reference value: 5%); parameters: scale not given: the % may be the effect or the level left
[13] = target: Amyloid-beta precursor protein (Homo sapiens) (UniProt P05067); test: Binding affinity to amyloid beta (1 to 42) (unknown origin) assessed as absence of fibrillar assembly at 10 uM measured after 24 hrs by STEM analysis
[14] = target: Amyloid-beta precursor protein (Homo sapiens) (UniProt P05067); test: Binding affinity to amyloid beta (1 to 42) (unknown origin) assessed as absence of fibrillar assembly at 10 uM measured after 24 hrs by HR-TEM analysis
[15] = target: Amyloid-beta precursor protein (Homo sapiens) (UniProt P05067); test: Inhibition of amyloid beta (1 to 42) (unknown origin) aggregation assessed as protein with turn conformation at 10 uM measured after 24 hrs by circular dichroism analysis (reference value: 11.6%); parameters: scale not given: the % may be the effect or the level left
[16] = test system: PC-12; test: Neuroprotective activity against amyloid beta 42-induced toxicity in rat PC-12 cells assessed as cell viability at 0.1 uM measured after 6 hrs by MTT assay (reference value: 73.8%); assay type: functional; conditions: read-out: Activity
[17] = target: Amyloid-beta precursor protein (Homo sapiens) (UniProt P05067); test: Inhibition of amyloid beta (1 to 42) (unknown origin) aggregation assessed as relative fluorescence unit at 2 uM measured after 24 hrs by thioflavin-T fluorescence assay (reference value: 100%)
[18] = target: Amyloid-beta precursor protein (Homo sapiens) (UniProt P05067); test: Inhibition of amyloid beta (1 to 42) (unknown origin) assessed as reduction in peptide aggregation at 1 uM measured after 24 hrs by thioflavin-T fluorescence assay relative to control
[19] = test system: PC-12; test: Neuroprotective activity against amyloid beta 42-induced toxicity in rat PC-12 cells assessed as cell viability at 1 uM measured after 6 hrs by MTT assay (reference value: 73.8%); assay type: functional; conditions: read-out: Activity
[20] = target: Amyloid-beta precursor protein (Homo sapiens) (UniProt P05067); test: Inhibition of amyloid beta (1 to 42) (unknown origin) assessed as reduction in peptide aggregation at 0.5 uM measured after 24 hrs by thioflavin-T fluorescence assay relative to control
[21] = test system: PC-12; test: Neuroprotective activity against amyloid beta 42-induced toxicity in rat PC-12 cells assessed as cell viability at 0.5 uM measured after 6 hrs by MTT assay (reference value: 73.8%); assay type: functional; conditions: read-out: Activity
[22] = target: Amyloid-beta precursor protein (Homo sapiens) (UniProt P05067); test: Inhibition of amyloid beta (1 to 42) (unknown origin) aggregation assessed as relative fluorescence unit at 10 uM measured after 24 hrs by thioflavin-T fluorescence assay (reference value: 100%)
[23] = target: Amyloid-beta precursor protein (Homo sapiens) (UniProt P05067); test: Inhibition of amyloid beta (1 to 42) (unknown origin) assessed as reduction in peptide aggregation at 0.1 uM measured after 24 hrs by thioflavin-T fluorescence assay relative to control
[24] = target: Amyloid-beta precursor protein (Homo sapiens) (UniProt P05067); test: Inhibition of amyloid beta (1 to 42) (unknown origin) aggregation assessed as relative fluorescence unit at 4 uM measured after 24 hrs by thioflavin-T fluorescence assay (reference value: 100%)

Sequence of Amyloid-beta precursor protein (Homo sapiens) (P05067 whole entry): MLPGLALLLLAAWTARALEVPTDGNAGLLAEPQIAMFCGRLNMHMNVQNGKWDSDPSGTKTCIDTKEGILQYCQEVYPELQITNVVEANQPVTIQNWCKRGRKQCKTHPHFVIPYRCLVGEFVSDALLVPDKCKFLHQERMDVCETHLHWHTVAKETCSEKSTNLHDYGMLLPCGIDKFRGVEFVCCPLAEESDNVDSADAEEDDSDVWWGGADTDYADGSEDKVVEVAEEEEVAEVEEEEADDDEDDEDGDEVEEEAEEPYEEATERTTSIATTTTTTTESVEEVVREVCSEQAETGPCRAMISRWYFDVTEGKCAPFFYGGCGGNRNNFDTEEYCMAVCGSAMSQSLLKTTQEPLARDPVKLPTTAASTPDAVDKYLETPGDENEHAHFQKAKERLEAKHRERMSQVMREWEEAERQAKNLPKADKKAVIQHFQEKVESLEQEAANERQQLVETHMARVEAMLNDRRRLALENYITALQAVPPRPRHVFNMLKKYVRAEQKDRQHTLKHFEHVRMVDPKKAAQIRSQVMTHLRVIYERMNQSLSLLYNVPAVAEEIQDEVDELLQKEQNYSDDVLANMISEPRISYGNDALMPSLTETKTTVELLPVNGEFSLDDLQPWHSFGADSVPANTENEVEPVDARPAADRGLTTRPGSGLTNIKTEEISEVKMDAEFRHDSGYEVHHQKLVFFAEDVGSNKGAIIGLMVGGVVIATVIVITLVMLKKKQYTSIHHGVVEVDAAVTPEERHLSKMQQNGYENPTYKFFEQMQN

| Compound | inhibition [5] [%] | inhibition [6] [%] | inhibition [7] [%] | viability at 10 µM [1] [%] | viability at 4 µM [2] [%] | viability at 2 µM [3] [%] | further results |
| --- | --- | --- | --- | --- | --- | --- | --- |
| CC[C@H](C)[C@H](NC(=O)[C@@H](NC(=O)[C@H](Cc1ccccc1)NC)C(C)C)C(=O)N[C@@H](C)C(=O)O (H-[NMeF]VIA-OH) | 100 | 94.3 | 84.8 | 100 | 81 | 86.1 | Peff [4]: Permeable |
| CC[C@H](C)[C@H](NC(=O)[C@H](Cc1ccccc1)NC(=O)[C@@H](N)Cc1ccccc1)C(=O)N[C@@H](C)C(=O)O (H-FFIA-OH) | 100 | 97.2 | 92.2 | 83.8 | 100 | 98 | Activity [8]: Non-Toxic; Peff [4]: Permeable; Activity [9]: Non-Toxic |
| COc1cc(/C=C/C(=O)CC(=O)/C=C/c2ccc(O)c(OC)c2)ccc1O | – | – | – | – | – | – | Activity [10]: Active |
| CC[C@H](NC(=O)[C@@H](N)CC)C(=O)N[C@H](C(=O)N[C@@H](C)C(=O)O)[C@@H](C)CC (H-[Abu][Abu]IA-OH) | 88.7 | 90.2 | 97.7 | 92.1 | 100 | 100 | Activity [8]: Non-Toxic; Activity [9]: Non-Toxic |
| CC[C@H](C)[C@H](NC(=O)[C@@H](NC(=O)[C@@H](N)Cc1cccc2ccccc12)C(C)C)C(=O)N[C@@H](C)C(=O)O (H-[1Nal]VIA-OH) | 29.1 | 23.8 | 34 | 70.6 | 73.2 | 77 | Activity [11]: 18.7%; Activity [12]: 31.6%; Activity [13]: inactive; Activity [14]: inactive; Activity [15]: 45.3% |
| Oc1ccc(/C=C/c2cc(O)cc(O)c2)cc1 | – | – | – | – | – | – | Activity [10]: Active |
| CC[C@H](C)[C@H](NC(=O)C[C@@H]1CCCN1C(=O)[C@@H](N)C(C)C)C(=O)N[C@@H](C)C(=O)O (H-V[β3hP]IA-OH) | 100 | 99.2 | 96.1 | 66.4 | 80.4 | 91.1 | – |
| CC[C@H](C)[C@H](NC(=O)C[C@@H]1CCCN1C(=O)C[C@@H]1CCCN1)C(=O)N[C@@H](C)C(=O)O (H-[β3hP][β3hP]IA-OH) | 100 | 89.7 | 78.9 | 100 | 75.5 | 97.9 | – |
| CC[C@H](C)[C@H](NC(=O)[C@@H](NC(=O)[C@@H](N)Cc1ccc(Cl)cc1)C(C)C)C(=O)N[C@@H](C)C(=O)O (H-[Phe(4-Cl)]VIA-OH) | 75.8 | 57.4 | 46.4 | 72.3 | 73.9 | 80.1 | – |

Second part, led by results:

| inhibition [5] [%] | inhibition [6] [%] | inhibition [7] [%] | Compound | viability at 10 µM [1] [%] | viability at 4 µM [2] [%] | viability at 2 µM [3] [%] | further results |
| --- | --- | --- | --- | --- | --- | --- | --- |
| 100 | 83.4 | 80.6 | CC[C@H](C)[C@@H](C(=O)N[C@@H](C)C(=O)O)N(C)C(=O)[C@@H](NC(=O)[C@@H](N)C(C)C)C(C)C (H-VV[NMeI]A-OH) | 100 | 92.9 | 88.4 | Peff [4]: Permeable |
| 100 | 100 | 82 | CC[C@H](C)[C@H](NC(=O)[C@@H](NC(=O)[C@@H](N)C(C)C)C(C)C)C(=O)N[C@@H](CC(=O)O)C(=O)O (H-VVID-OH) | 95.8 | 98.7 | 100 | Activity [8]: Non-Toxic; Activity [9]: Non-Toxic |
| 66.2 | 60.6 | 33.9 | CC[C@H](C)[C@H](NC(=O)[C@@H](NC(=O)[C@@H](N)C(C)C)C(C)C)C(=O)N[C@@H](C)C(=O)O (H-VVIA-OH) | 93.6 | 90.5 | 78.9 | Peff [4]: Permeable |
| 23.4 | 26.5 | 24.2 | CC[C@H](C)[C@H](NC(=O)[C@@H](NC(=O)[C@@H](N)C(C)C)C(C)C)C(=O)N[C@@H](CCC(N)=O)C(=O)O (H-VVIQ-OH) | 74.6 | 75.2 | 76.9 | – |
| 95.3 | 97.4 | 100 | CC[C@H](C)[C@H](NC(=O)[C@@H](NC(=O)[C@@H](N)C(C)(C)C)C(C)(C)C)C(=O)N[C@@H](C)C(=O)O (H-[Tle][Tle]IA-OH) | 100 | 100 | 100 | viability at 0.1 µM [16]: 91.2%; RFU [17]: 51.2%; inhibition [18]: 51.8%; Activity [8]: Non-Toxic; viability at 1 µM [19]: 97.6%; inhibition [20]: 41.3%; viability at 0.5 µM [21]: 94.5%; RFU [22]: 55.5%; inhibition [23]: 34.4%; RFU [24]: 54.5%; Activity [9]: Non-Toxic |
| 4.4 | 0 | 0 | CC[C@H](NC(=O)[C@@H](NC(=O)[C@@H](N)C(C)C)C(C)C)C(=O)N[C@@H](C)C(=O)O (H-VV[Abu]A-OH) | 89.2 | 94.9 | 89.1 | – |
| 61 | 44.1 | 31.6 | CC(C)C[C@@H](C(=O)N[C@@H](C)C(=O)O)N(C)C(=O)[C@@H](NC(=O)[C@@H](N)C(C)C)C(C)C (H-VV[NMeL]A-OH) | 84.8 | 87.2 | 96.3 | – |
